Format in all cases: biochemical
Test [1] addresses T1, reuptake of serotonine (5-HT) in synaptosomes (Rattus norvegicus, UniProt P31652).
T1 construct: serotonine (5-HT) in synaptosomes as described in WO 97/16451; from tissue
Nature of the test: Inhibition of 5-HT reuptake in synaptosomes. The source says: (§1) Compounds of the invention may be tested for their ability to inhibit reuptake of the monoamines dopamine, noradrenaline and serotonin in synaptosomes e.g. such as described in WO 97/30997 (NeuroSearch NS) or WO 97/16451 (NeuroSearch A/S). Based on the balanced activity observed in these tests the compound of the invention is considered useful for the treatment, prevention or alleviation of a disease or a disorder or a condition of a mammal, including a human, which disease, disorder or condition is responsive to inhibition of monoamine neurotransmitter re-uptake in the central nervous system.
(§2) Compounds were tested for their ability to inhibit the reuptake of the mono-amine neurotransmitters dopamine (DA) noradrenaline (NA) and serotonine (5-HT) in synaptosomes as described in WO 97/16451 (NeuroSearch NS).
(§3) The test values are given as IC50 (the concentration (μM) of the test substance which inhibits the specific binding of ^3H-DA, ^3H-NA, or ^3H-5-HT by 50%).

For test [2], the target named is T2, reuptake of noradrenaline (NA) in synaptosomes (Rattus norvegicus, UniProt Q63380).
T2 construct: in synaptosomes as described in WO 97/16451; from tissue
T2 sequence (Q63380 1-617): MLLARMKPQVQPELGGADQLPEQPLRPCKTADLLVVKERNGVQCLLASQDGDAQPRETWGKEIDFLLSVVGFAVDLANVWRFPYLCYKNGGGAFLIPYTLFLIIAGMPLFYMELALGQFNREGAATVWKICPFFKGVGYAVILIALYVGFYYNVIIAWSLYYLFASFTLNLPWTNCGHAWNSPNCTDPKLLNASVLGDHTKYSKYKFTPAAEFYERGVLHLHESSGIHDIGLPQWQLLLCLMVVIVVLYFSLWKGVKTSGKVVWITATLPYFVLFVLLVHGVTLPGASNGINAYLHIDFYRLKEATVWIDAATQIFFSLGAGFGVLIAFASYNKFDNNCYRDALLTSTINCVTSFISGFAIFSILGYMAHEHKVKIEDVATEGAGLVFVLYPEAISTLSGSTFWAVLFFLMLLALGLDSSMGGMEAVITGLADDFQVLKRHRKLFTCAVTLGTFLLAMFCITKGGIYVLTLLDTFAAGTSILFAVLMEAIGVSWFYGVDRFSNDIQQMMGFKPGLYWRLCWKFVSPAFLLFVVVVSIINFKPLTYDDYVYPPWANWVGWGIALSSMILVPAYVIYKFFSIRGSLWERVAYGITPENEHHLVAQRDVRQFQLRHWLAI
Description: Inhibition of NA reuptake in synaptosomes.
Description: as §1, §2, §3

The target of test [3] is T3, reuptake of dopamine (DA) in synaptosomes (Rattus norvegicus, UniProt P23977).
T3 construct: in synaptosomes as described in WO 97/16451; from tissue
T3 sequence (P23977 whole entry): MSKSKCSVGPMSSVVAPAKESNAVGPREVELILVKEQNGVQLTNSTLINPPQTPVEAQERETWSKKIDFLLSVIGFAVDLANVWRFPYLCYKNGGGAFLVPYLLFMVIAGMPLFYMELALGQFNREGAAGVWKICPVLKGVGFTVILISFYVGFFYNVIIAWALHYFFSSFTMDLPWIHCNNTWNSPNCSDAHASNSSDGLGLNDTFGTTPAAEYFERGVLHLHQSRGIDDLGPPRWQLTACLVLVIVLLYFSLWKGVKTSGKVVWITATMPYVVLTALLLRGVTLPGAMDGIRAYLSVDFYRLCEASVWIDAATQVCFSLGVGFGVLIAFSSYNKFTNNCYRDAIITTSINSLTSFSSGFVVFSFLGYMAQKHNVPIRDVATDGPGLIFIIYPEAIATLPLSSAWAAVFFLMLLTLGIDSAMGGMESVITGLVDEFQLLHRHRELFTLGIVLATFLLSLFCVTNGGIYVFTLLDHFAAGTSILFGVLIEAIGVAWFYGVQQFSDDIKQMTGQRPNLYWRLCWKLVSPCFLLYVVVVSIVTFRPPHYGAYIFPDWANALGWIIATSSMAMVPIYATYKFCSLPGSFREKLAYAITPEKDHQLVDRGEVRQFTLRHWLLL
Description: Inhibition of DA reuptake in synaptosomes. Conditions: 3H-DA, read-out: DA-uptake IC50.
Description: as §1, §2, §3

Counter-ions that a name gives are not always drawn. Like-named read-outs stand apart in the source and are kept apart here.

The IC50 is the concentration at which inhibition is half-maximal.

T1 sequence (P31652 whole entry): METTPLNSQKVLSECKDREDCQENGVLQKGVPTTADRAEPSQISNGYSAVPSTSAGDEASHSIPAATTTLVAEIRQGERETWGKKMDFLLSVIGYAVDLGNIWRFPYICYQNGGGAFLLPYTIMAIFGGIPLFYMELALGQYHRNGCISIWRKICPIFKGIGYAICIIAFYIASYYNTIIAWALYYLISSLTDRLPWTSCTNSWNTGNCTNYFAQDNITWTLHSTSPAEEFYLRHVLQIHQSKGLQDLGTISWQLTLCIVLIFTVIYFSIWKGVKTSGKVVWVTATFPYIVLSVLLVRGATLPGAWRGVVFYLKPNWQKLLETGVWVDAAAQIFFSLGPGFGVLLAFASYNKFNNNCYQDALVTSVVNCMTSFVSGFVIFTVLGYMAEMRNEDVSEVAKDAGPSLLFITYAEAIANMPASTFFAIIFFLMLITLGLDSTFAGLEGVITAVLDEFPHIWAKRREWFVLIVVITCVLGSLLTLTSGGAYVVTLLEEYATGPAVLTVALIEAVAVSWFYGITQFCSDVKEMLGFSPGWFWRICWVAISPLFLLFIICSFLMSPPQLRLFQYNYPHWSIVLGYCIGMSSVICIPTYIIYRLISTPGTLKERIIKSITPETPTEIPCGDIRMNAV

Regarding `O=c1ccc2ccc(O[C@@H]3C[C@H]4CCC[C@@H](C3)N4)cc2o1` [Compound A1, exo-7-(9-Aza-bicyclo[3.3.1]non-3-yloxy)-chromen-2-one hydrochloric acid salt], the IC50 in test [1] stood at 1.3 nM; in test [2] it was 76 nM; in test [3], 240 nM.

In the case of `CN1[C@@H]2CCC[C@H]1C[C@H](Oc1ccc3ccc(=O)oc3c1)C2` [Compound A2, exo-7-(9-Methyl-9-aza-bicyclo[3.3.1]non-3-yloxy)-chromen-2-one hydrochloric acid salt], the half-maximal inhibitory concentration (IC50) was 2.9 nM in test [1]; 270 nM in test [2] (synaptosomes, 3H-NA, read-out: NA-uptake IC50); 150 nM in test [3].

(Values after patent US20110136854A1, “NOVEL 9-AZA-BICYCLO[3.3.1]NON-3-YLOXY CHROMEN-2-ONE DERIVATIVES AND THEIR USE AS MONOAMINE NEUROTRANSMITTER RE-UPTAKE INHIBITORS” (NeuroSearch A/S, priority 2008, published 2011).)
